Reference: ChEMBL document CHEMBL3421542, “Pure Diastereomers of a Tranylcypromine-Based LSD1 Inhibitor: Enzyme Selectivity and In-Cell Studies” (ACS Med Chem Lett, 2015)

Assays:
[1] = biological target: T1, MAO-B (amine oxidase [flavin-containing] B) (Homo sapiens, UniProt P27338); assay: Inhibition of human recombinant MAOB expressed in Pichia pastoris at 100 uM incubated for 15 mins prior to substrate addition measured after 30 mins by luminescence assay
T1 sequence (P27338 whole entry): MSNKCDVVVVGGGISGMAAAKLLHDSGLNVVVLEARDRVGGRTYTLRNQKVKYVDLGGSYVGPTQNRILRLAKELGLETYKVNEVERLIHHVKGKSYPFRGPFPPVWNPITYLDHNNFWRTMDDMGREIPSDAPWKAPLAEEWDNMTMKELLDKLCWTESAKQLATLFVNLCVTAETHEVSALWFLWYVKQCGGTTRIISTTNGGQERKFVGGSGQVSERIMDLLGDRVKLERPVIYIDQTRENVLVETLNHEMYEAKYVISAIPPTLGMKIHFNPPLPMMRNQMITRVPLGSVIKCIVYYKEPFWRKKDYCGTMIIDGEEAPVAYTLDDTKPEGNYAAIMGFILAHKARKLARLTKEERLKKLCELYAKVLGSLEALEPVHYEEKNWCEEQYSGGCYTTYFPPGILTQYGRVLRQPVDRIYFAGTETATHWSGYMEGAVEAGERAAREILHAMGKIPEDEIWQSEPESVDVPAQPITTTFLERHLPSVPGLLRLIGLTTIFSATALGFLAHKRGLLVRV

[2] = biological target: T2, Amine oxidase [flavin-containing] B (Homo sapiens, UniProt P27338); assay: Inhibition of human recombinant MAOB expressed in Pichia pastoris incubated for 15 mins prior to substrate addition measured after 30 mins by luminescence assay
T2 sequence (P27338 whole entry): T1 sequence (P27338 whole entry)

[3] = Inhibition of colony formation in mouse acute promyelocytic leukemic cell at 0.25 uM after 7 days by colony forming unit assay; format: functional; conditions: 168 h
[4] = Induction of cell differentiation in human NB4 cells assessed as upregulation of CD11B expression; format: functional, cell-based; conditions: NB-4
[5] = Induction of cell differentiation in mouse acute promyelocytic leukemic cells; format: functional

Row | Structure (SMILES) | inhibition at 0.5 h, 100 µM [1] [%] | IC50 [2] [µM] | inhibition at 0.25 µM [3] [%] | Activity [4] [%] | Activity [5] [%]
1 | N[C@H]1C[C@@H]1c1ccc(NC(=O)[C@@H](Cc2ccccc2)NC(=O)OCc2ccccc2)cc1 | 14 |  |  |  | 
2 | N[C@H]1C[C@@H]1c1ccc(NC(=O)[C@H](Cc2ccccc2)NC(=O)OCc2ccccc2)cc1 |  | 42.6 |  |  | 
3 | N[C@@H]1C[C@H]1c1ccc(NC(=O)[C@@H](Cc2ccccc2)NC(=O)OCc2ccccc2)cc1 | 33 |  | 59.6 |  | 
4 | N[C@@H]1C[C@H]1c1ccc(NC(=O)[C@H](Cc2ccccc2)NC(=O)OCc2ccccc2)cc1 |  | 32 | 59.2 |  | 
5 | Cl.NC1CC1c1ccc(NC(=O)C(Cc2ccccc2)NC(=O)OCc2ccccc2)cc1 (mixture of isomers) | 40 |  | 36.8 | 77.9 | 77.9
